Laboratory results from ChEMBL document CHEMBL4831544, “Discovery of IHMT-EZH2-115 as a Potent and Selective Enhancer of Zeste Homolog 2 (EZH2) Inhibitor for the Treatment of B-Cell Lymphomas” (J Med Chem, 2021).
Active and inactive are the calls of the source. The rule behind the calls is not given here.

Tests used:
SUD4 = test: Antiproliferative activity against human SU-DHL-4 cells harboring EZH2 Y641S mutant assessed as inhibition of cell growth measured after 6 days by CellTiter-Glo luminescent assay; assay type: functional; conditions: SU-DHL-4, 144 h, time 6 day
[1] = system: Histone-lysine N-methyltransferase EZH2 (Homo sapiens), Q15910 [P132S]; test: Inhibition of EZH2 P132S mutant (unknown origin) at 10 uM using SAM as substrate measured up to 960 mins by AlphaScreen microplate reader assay relative to control; conditions: time min <=960
Sequence of Histone-lysine N-methyltransferase EZH2 (Homo sapiens), Q15910 [P132S] (Q15910 whole entry P132S): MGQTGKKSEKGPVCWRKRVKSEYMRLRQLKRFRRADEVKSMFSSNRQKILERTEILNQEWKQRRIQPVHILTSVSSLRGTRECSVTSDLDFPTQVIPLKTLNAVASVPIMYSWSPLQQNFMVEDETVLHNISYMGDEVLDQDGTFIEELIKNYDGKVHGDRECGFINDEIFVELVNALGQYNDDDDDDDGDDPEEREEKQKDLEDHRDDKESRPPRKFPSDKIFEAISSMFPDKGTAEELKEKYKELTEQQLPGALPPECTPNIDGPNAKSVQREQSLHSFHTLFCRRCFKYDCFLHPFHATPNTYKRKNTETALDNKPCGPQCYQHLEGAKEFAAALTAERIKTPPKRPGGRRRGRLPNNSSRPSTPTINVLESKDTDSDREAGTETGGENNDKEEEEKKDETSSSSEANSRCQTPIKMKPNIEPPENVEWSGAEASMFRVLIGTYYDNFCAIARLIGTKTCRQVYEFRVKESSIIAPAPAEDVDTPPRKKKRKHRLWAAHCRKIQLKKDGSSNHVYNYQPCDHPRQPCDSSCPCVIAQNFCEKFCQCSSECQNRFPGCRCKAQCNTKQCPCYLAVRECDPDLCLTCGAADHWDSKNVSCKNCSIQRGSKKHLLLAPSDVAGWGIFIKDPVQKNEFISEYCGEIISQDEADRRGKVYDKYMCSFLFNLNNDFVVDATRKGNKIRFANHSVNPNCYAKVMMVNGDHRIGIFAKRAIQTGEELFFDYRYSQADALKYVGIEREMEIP

U2932 = test: Antiproliferative activity against human U2932 cells expressing wild type EZH2 assessed as inhibition of cell growth measured after 6 days by CellTiter-Glo luminescent assay; assay type: functional; conditions: U2932, 144 h, time 6 day
Pfeiffer = test: Antitumor activity against human Pfeiffer cells harboring EZH2 A677G mutant xenografted in NCG mouse assessed as tumor growth inhibition at 100 mg/kg, po BID via gavage measured after 28 days relative to control; assay type: functional; conditions: 672 h, time 28 day, read-out: TGI
[2] = system: Histone-lysine N-methyltransferase EZH2 (Homo sapiens), Q15910 [Y641S]; test: Inhibition of EZH2 Y641S mutant (unknown origin) at 10 uM using SAM as substrate measured up to 960 mins by AlphaScreen microplate reader assay relative to control; conditions: time min <=960
Sequence of Histone-lysine N-methyltransferase EZH2 (Homo sapiens), Q15910 [Y641S] (Q15910 whole entry Y641S): as the sequence (Q15910 whole entry P132S) above, with S132P, Y641S counted along it

[3] = biological target: Histone-lysine N-methyltransferase EHMT2 (Homo sapiens) (UniProt Q96KQ7); test: Inhibition of G9A (unknown origin) at 10 uM using SAM as substrate measured up to 960 mins by AlphaScreen microplate reader assay relative to control; conditions: time min <=960
Sequence of Histone-lysine N-methyltransferase EHMT2 (Homo sapiens) (Q96KQ7 whole entry): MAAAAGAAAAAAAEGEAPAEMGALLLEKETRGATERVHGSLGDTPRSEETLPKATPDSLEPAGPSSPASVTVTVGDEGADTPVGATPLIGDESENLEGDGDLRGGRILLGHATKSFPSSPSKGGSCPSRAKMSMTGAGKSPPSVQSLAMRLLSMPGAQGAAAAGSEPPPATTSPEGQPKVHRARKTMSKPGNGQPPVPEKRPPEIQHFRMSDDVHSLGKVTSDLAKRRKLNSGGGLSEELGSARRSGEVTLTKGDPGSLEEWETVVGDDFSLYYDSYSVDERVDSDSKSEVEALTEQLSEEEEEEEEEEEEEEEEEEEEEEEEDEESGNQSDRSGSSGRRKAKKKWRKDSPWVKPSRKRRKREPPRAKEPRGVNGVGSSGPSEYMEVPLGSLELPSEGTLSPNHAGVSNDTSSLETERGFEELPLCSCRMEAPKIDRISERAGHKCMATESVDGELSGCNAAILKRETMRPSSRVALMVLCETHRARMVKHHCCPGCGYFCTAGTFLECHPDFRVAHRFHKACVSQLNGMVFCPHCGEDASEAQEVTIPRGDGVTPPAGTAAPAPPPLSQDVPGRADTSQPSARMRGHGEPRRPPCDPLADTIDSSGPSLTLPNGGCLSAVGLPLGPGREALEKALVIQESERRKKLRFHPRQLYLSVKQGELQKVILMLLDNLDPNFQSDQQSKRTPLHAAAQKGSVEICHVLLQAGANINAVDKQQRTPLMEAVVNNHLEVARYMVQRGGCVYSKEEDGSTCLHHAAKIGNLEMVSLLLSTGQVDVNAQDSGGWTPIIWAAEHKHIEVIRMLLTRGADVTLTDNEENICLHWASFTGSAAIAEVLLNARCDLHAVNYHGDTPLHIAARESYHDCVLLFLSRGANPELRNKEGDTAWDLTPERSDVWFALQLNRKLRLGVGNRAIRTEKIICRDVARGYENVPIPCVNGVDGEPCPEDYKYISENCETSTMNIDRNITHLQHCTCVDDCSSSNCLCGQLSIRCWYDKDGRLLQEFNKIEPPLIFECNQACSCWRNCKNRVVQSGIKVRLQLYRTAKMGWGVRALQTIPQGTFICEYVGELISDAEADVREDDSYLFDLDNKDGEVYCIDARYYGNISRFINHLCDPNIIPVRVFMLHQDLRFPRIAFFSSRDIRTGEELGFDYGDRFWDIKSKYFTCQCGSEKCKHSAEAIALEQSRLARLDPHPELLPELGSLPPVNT

[4] = biological target: Protein arginine N-methyltransferase 1 (Homo sapiens) (UniProt Q99873); test: Inhibition of PRMT1 (unknown origin) at 10 uM using SAM as substrate measured up to 960 mins by AlphaScreen microplate reader assay relative to control; conditions: time min <=960
Sequence of Protein arginine N-methyltransferase 1 (Homo sapiens) (Q99873 whole entry, looked up): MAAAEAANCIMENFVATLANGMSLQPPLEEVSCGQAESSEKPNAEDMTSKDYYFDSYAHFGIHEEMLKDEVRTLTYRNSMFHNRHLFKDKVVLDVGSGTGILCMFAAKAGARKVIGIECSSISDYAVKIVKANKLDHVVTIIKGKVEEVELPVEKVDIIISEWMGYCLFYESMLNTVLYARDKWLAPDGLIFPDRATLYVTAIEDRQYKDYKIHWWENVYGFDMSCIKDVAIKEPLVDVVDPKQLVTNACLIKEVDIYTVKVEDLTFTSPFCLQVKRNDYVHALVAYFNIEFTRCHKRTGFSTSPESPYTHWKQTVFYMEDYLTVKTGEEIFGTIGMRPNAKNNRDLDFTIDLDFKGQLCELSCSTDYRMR

[5] = Apparent volume of distribution in mouse at 1 mg/kg, iv measured up to 24 hrs by LC-MS/MS analysis; assay type: ADME, organism-based; conditions: in vivo
KARPAS-422 [6] = test: Antitumor activity against human KARPAS-422 cells harboring EZH2 Y641N mutant xenografted in NCG mouse assessed as tumor regression at 200 mg/kg, po BID via gavage measured within 10 days; assay type: functional, organism-based; conditions: time day <10
KARPAS-422 [7] = test: Antiproliferative activity against human KARPAS-422 cells harboring EZH2 Y641N mutant assessed as inhibition of cell growth measured after 6 days by CellTiter-Glo luminescent assay; assay type: functional; conditions: KARPAS-422, 144 h, time 6 day
SU-DHL-6 = test: Antiproliferative activity against human SU-DHL-6 cells harboring EZH2 Y641N mutant assessed as inhibition of cell growth measured after 6 days by CellTiter-Glo luminescent assay; assay type: functional; conditions: SU-DHL-6, 144 h, time 6 day
[8] = Cmax in rat at 1 mg/kg, iv; assay type: ADME, organism-based; set-up: route intravenous, dose 1 mg/kg; conditions: in vivo

inhibition [1]: 100%
inhibition [2]: 90%
inhibition [3]: 0%
inhibition [4]: 7%
Vz [5]: 20.833 L/kg
GI50 (KARPAS-422 [7]): 50 nM
GI50 (SU-DHL-6): 1100 nM
Cmax [8]: 406 ng/mL
SMILES: CCN(C(=O)C1CC1)c1cc(-c2ccc(N3CCN(CC4CC4)CC3)nc2C)cc(C(=O)NCc2c(C)cc(C)[nH]c2=O)c1C
GI50 (SUD4): 3870 nM
GI50 (U2932): > 10000 nM
inhibition in vivo at 100 mg/kg (Pfeiffer): 100%
Activity (KARPAS-422 [6]): Active
